Molecular target: HSP90 (Homo sapiens, UniProt P07900)
Assay: HSP90 inhibition (HSP90 IC50)
Format: biochemical

Row | IC50 [nM] | Structure (SMILES)
1 | 1000 to 2000 | CNC(=O)c1ccc(N2[C@@H]3CC[C@H]2C[C@@H](NC(=O)c2cccc(OC)c2C)C3)nc1 [N-methyl-6-[3-endo-({[2-methyl-3-(methyloxy)phenyl]carbonyl}amino)-8-azabicyclo[3.2.1]oct-8-yl]pyridine-3-carboxamide]
2 | 500 to 999 | COc1ccc(C(C)NC(=O)c2ccc(N3[C@@H]4CC[C@H]3C[C@@H](NC(=O)c3cccc(OC)c3C)C4)nc2)cc1OC (stereo partly drawn) [N-{1-[3,4-bis(methyloxy)phenyl]ethyl}-6-[3-endo-({[2-methyl-3-(methyloxy)phenyl]carbonyl}amino)-8-azabicyclo[3.2.1]oct-8-yl]pyridine-3-carboxamide]
3 | 2000 to 10000 | COc1ccc(CCNC(=O)c2ccc(N3[C@@H]4CC[C@H]3C[C@@H](NC(=O)c3cccc(OC)c3C)C4)nc2)cc1OC [N-{2-[3,4-bis(methyloxy)phenyl]ethyl}-6-[3-endo-({[2-methyl-3-(methyloxy)phenyl]carbonyl}amino)-8-azabicyclo[3.2.1]oct-8-yl]pyridine-3-carboxamide]
4 | 2000 to 10000 | COc1cccc(C(=O)N[C@H]2C[C@H]3CC[C@@H](C2)N3c2ccc(C(=O)NCCOC(C)C)cn2)c1C [N-{2-[(1-methylethyl)oxy]ethyl}-6-(3-endo-({[2-methyl-3-(methyloxy)phenyl]carbonyl}amino)-8-azabicyclo[3.2.1]oct-8-yl]pyridine-3-carboxamide]
5 | 1000 to 2000 | COc1cccc(C(=O)N[C@H]2C[C@H]3CC[C@@H](C2)N3c2ccc(C(=O)NCCCOC(C)C)cn2)c1C [N-{3-[(1-methylethyl)oxy]propyl}-6-[3-endo-({[2-methyl-3-(methyloxy)phenyl]carbonyl}amino)-8-azabicyclo[3.2.1]oct-8-yl]pyridine-3-carboxamide]
6 | < 500 | Cc1cc(C(N)=O)c(CC(C)C)cc1C(=O)N[C@H]1C[C@H]2CC[C@@H](C1)N2c1ccc(C(=O)C2CC2)cn1 [N-{8-(5-(cyclopropylcarbonyl)pyridin-2-yl]-8-azabicyclo[3.2.1]oct-3-endo-yl}-2-methyl-5-(2-methylpropyl)benzene-1,4-dicarboxamide]
7 | < 500 | CCC(Nc1cc(C(=O)N[C@H]2C[C@H]3CC[C@@H](C2)N3c2ccc(C(=O)C3CC3)cn2)c(C)cc1C(N)=O)C1CC1 (stereo partly drawn) [N-{8-(5-(cyclopropylcarbonyl)pyridin-2-yl]-8-azabicyclo[3.2.1]oct-3-endo-yl}-5-[(1-cyclopropylpropyl)amino]-2-methylbenzene-1,4-dicarboxamide]
8 | < 500 | Cc1cc(C(=O)N[C@H]2C[C@H]3CC[C@@H](C2)N3c2ccc(C(N)=O)cn2)c(C)cc1C(N)=O [N-{8-[5-(aminocarbonyl)pyridin-2-yl]-8-azabicyclo[3.2.1]oct-3-endo-yl}-2,5-dimethylbenzene-1,4-dicarboxamide]
9 | 1000 to 2000 | NC(=O)c1ccc(C(=O)N[C@H]2C[C@H]3CC[C@@H](C2)N3c2ccc(C(N)=O)cn2)cc1 [N-{8-[5-(aminocarbonyl)pyridin-2-yl]-8-azabicyclo[3.2.1]oct-3-endo-yl}benzene-1,4-dicarboxamide]
10 | < 500 | Cc1cc(C(N)=O)c(NC(C)C2CC2)cc1C(=O)N[C@H]1C[C@H]2CC[C@@H](C1)N2c1ccc(C(=O)C2CC2)cn1 (stereo partly drawn) [N-{8-[5-(cyclopropylcarbonyl)pyridin-2-yl]-8-azabicycbo[3.2.1]oct-3-endo-yl}-5-[(l-cyclopropylethyl)amino]-2-methylbenzene-1,4-dicarboxamide]
11 | < 500 | Cc1cc(C(N)=O)c(NCC(C)(C)C)cc1C(=O)N[C@H]1C[C@H]2CC[C@@H](C1)N2c1ccc(C(=O)C2CC2)cn1 [N-{8-[5-(cyclopropylcarbonyl)pyridin-2-yl]-8-azabicyclo[3.2.1]oct-3-endo-yl)-5-[(2,2-dimethylpropyl)amino]-2-methylbenzene-1,4-dicarboxamide]
12 | < 500 | Cc1cc(C(N)=O)c(NCC2CC2)cc1C(=O)N[C@H]1C[C@H]2CC[C@@H](C1)N2c1ccc(C(=O)C2CC2)cn1 [N-{8-[5-(cyclopropylcarbonyl)pyridin-2-yl]-8-azabicyclo[3.2.1]oct-3-endo-yl)-5-[(cyclopropylmethyl)amino]-2-methylbenzene-1,4-dicarboxamide]
13 | 2000 to 10000 | CCNc1cc(C(N)=O)c(N[C@H](C)CC)cc1C(=O)NC1CC2CCC(C1)N2c1ccc(C(=O)C2CC2)cn1 (stereo partly drawn) [N-{8-[5-(cyclopropylcarbonyl)pyridin-2-yl]-8-azabicyclo[3.2.1]oct-3-endo-yl}-2-(ethylamino)-5-{[(1R)-1-methylpropyl]amino}benzene-1,4-dicarboxamide]
14 | < 500 | CC[C@@H](C)Nc1cc(C(=O)NC2CC3CCC(C2)N3c2ccc(C(=O)C3CC3)cn2)c(OC)cc1C(N)=O (stereo partly drawn) [N-{8-[5-(cyclopropylcarbonyl)pyridin-2-yl]-8-azabicyclo[3.2.1]oct-3-endo-yl}-2-(methyloxy)-5-{[(1R)-1-methylpropyl]amino}benzene-1,4-dicarboxamide]
15 | < 500 | CCc1cc(C(N)=O)c(N[C@H](C)CC)cc1C(=O)NC1CC2CCC(C1)N2c1ccc(C(=O)C2CC2)cn1 (stereo partly drawn) [N-{8-[5-(cyclopropylcarbonyl)pyridin-2-yl]-8-azabicyclo[3.2.1]oct-3-endo-yl}-2-ethyl-5-{[(1R)-1-methylpropyl]amino}benzene-1,4-dicarboxamide]
16 | < 500 | COc1cc(C(=O)N[C@H]2C[C@H]3CC[C@@H](C2)N3c2ccc(C(=O)C3CC3)cn2)c(C)cc1C(N)=O [N-{8-[5-(cyclopropylcarbonyl)pyridin-2-yl]-8-azabicyclo[3.2.1]oct-3-endo-yl}-2-methyl-5-(methyloxy)benzene-1,4-dicarboxamide]
17 | < 500 | CCCNc1cc(C(=O)N[C@H]2C[C@H]3CC[C@@H](C2)N3c2ccc(C(=O)C3CC3)cn2)c(C)cc1C(N)=O [N-{8-[5-(cyclopropylcarbonyl)pyridin-2-yl]-8-azabicyclo[3.2.1]oct-3-endo-yl}-2-methyl-5-(propylamino)benzene-1,4-dicarboxamide]
18 | < 500 | Cc1cc(C(N)=O)c(NC(C)C)cc1C(=O)N[C@H]1C[C@H]2CC[C@@H](C1)N2c1ccc(C(=O)C2CC2)cn1 [N-{8-[5-(cyclopropylcarbonyl)pyridin-2-yl]-8-azabicyclo[3.2.1]oct-3-endo-yl}-2-methyl-5-[(1-methylethyl)amino]benzene-1,4-dicarboxamide]
19 | < 500 | Cc1cc(C(N)=O)c(NC(C)CC(F)(F)F)cc1C(=O)N[C@H]1C[C@H]2CC[C@@H](C1)N2c1ccc(C(=O)C2CC2)cn1 (stereo partly drawn) [N-{8-[5-(cyclopropylcarbonyl)pyridin-2-yl]-8-azabicyclo[3.2.1]oct-3-endo-yl}-2-methyl-5-[(3,3,3-trifluoro-1-methylpropyl)amino]benzene-1,4-dicarboxamide]
20 | < 500 | Cc1cc(C(N)=O)c(NCCC(F)(F)F)cc1C(=O)N[C@H]1C[C@H]2CC[C@@H](C1)N2c1ccc(C(=O)C2CC2)cn1 [N-{8-[5-(cyclopropylcarbonyl)pyridin-2-yl]-8-azabicyclo[3.2.1]oct-3-endo-yl}-2-methyl-5-[(3,3,3-trifluoropropyl)amino]benzene-1,4-dicarboxamide]
21 | < 500 | Cc1cc(C(N)=O)c(N[C@H]2CCOC2)cc1C(=O)NC1CC2CCC(C1)N2c1ccc(C(=O)C2CC2)cn1 (stereo partly drawn) [N-{8-[5-(cyclopropylcarbonyl)pyridin-2-yl]-8-azabicyclo[3.2.1]oct-3-endo-yl}-2-methyl-5-[(3S)-tetrahydrofuran-3-ylamino]benzene-1,4-dicarboxamide]
22 | < 500 | Cc1cc(C(N)=O)c(NC(C)C2(C)CC2)cc1C(=O)N[C@H]1C[C@H]2CC[C@@H](C1)N2c1ccc(C(=O)C2CC2)cn1 (stereo partly drawn) [N-{8-[5-(cyclopropylcarbonyl)pyridin-2-yl]-8-azabicyclo[3.2.1]oct-3-endo-yl}-2-methyl-5-{[1-(1-methylcyclopropyl)ethyl]amino}benzene-1,4-dicarboxamide]
23 | 500 to 999 | COCCOc1cc(C(=O)N[C@H]2C[C@H]3CC[C@@H](C2)N3c2ccc(C(=O)C3CC3)cn2)c(C)cc1C(N)=O [N-{8-[5-(cyclopropylcarbonyl)pyridin-2-yl]-8-azabicyclo[3.2.1]oct-3-endo-yl}-2-methyl-5-{[2-(methyloxy)ethyl]oxy}benzene-1,4-dicarboxamide]
24 | < 500 | Cc1cc(C(N)=O)c(NC(C(C)C)C(C)C)cc1C(=O)N[C@H]1C[C@H]2CC[C@@H](C1)N2c1ccc(C(=O)C2CC2)cn1 [N-{8-[5-(cyclopropylcarbonyl)pyridin-2-yl]-8-azabicyclo[3.2.1]oct-3-endo-yl}-2-methyl-5-{[2-methyl-1-(1-methylethyl)propyl]amino}benzene-1,4-dicarboxamide]
25 | < 500 | Cc1cc(C(N)=O)c(NC(C(C)C)C(F)(F)F)cc1C(=O)N[C@H]1C[C@H]2CC[C@@H](C1)N2c1ccc(C(=O)C2CC2)cn1 (stereo partly drawn) [N-{8-[5-(cyclopropylcarbonyl)pyridin-2-yl]-8-azabicyclo[3.2.1]oct-3-endo-yl}-2-methyl-5-{[2-methyl-1-(trifluoromethyl)propyl]amino}benzene-1,4-dicarboxamide]
26 | < 500 | Cc1cc(C(N)=O)c(N[C@H](C)C(C)(C)C)cc1C(=O)NC1CC2CCC(C1)N2c1ccc(C(=O)C2CC2)cn1 (stereo partly drawn) [N-{8-[5-(cyclopropylcarbonyl)pyridin-2-yl]-8-azabicyclo[3.2.1]oct-3-endo-yl}-2-methyl-5-{[(1R)-1,2,2-trimethylpropyl]amino}benzene-1,4-dicarboxamide]
27 | < 500 | CC[C@@H](C)Nc1cc(C(=O)NC2CC3CCC(C2)N3c2ccc(C(=O)C3CC3)cn2)c(C)cc1C(N)=O (stereo partly drawn) [N-{8-[5-(cyclopropylcarbonyl)pyridin-2-yl]-8-azabicyclo[3.2.1]oct-3-endo-yl}-2-methyl-5-{[(1R)-1-methylpropyl]amino}benzene-1,4-dicarboxamide]
28 | < 500 | Cc1cc(C(N)=O)c(NC(C)(C)C)cc1C(=O)N[C@H]1C[C@H]2CC[C@@H](C1)N2c1ccc(C(=O)C2CC2)cn1 [N-{8-[5-(cyclopropylcarbonyl)pyridin-2-yl]-8-azabicyclo[3.2.1]oct-3-endo-yl}-5-[(1,1-dimethylethyl)amino]-2-methylbenzene-1,4-dicarboxamide]
29 | < 500 | CCC(Nc1cc(C(=O)N[C@H]2C[C@H]3CC[C@@H](C2)N3c2ccc(C(=O)C3CC3)cn2)c(C)cc1C(N)=O)C(C)C (stereo partly drawn) [N-{8-[5-(cyclopropylcarbonyl)pyridin-2-yl]-8-azabicyclo[3.2.1]oct-3-endo-yl}-5-[(1-ethyl-2-methylpropyl)amino]-2-methylbenzene-1,4-dicarboxamide]

— US8012956B2, “Tropane compounds” (Exelixis, Inc., priority 2007, dated 2011)
